Measurements from the NIST ThermoML archive (doi:10.1021/je060271a).
Numbers after ± are expanded uncertainties.

Conditions: 303.15 K, Liquid, Vibrating tube method

CCCCC(=O)OCC(COC(=O)CCCC)(COC(=O)CCCC)COC(=O)CCCC [pentaerythritol tetrapentanoate]
Conditions	mass density [kg/m3]
13763 kPa	1019.6 ± 1.2
13796 kPa	1019.5 ± 1.2
13829 kPa	1019.6 ± 1.2
13863 kPa	1019.6 ± 1.2
13902 kPa	1019.7 ± 1.2
13936 kPa	1019.7 ± 1.2
13971 kPa	1019.7 ± 1.2
14011 kPa	1019.6 ± 1.2
14045 kPa	1019.6 ± 1.2
14080 kPa	1019.8 ± 1.2
14120 kPa	1019.8 ± 1.2
14154 kPa	1019.7 ± 1.2
14189 kPa	1019.8 ± 1.2
14231 kPa	1019.8 ± 1.2
14265 kPa	1019.9 ± 1.2
14300 kPa	1019.8 ± 1.2
14344 kPa	1019.8 ± 1.2
14378 kPa	1020 ± 1.2
14414 kPa	1019.9 ± 1.2
14458 kPa	1019.9 ± 1.2
14494 kPa	1020 ± 1.2
14532 kPa	1020 ± 1.2
14574 kPa	1020.1 ± 1.2
14612 kPa	1020.1 ± 1.2
14649 kPa	1020.1 ± 1.2
14687 kPa	1019.9 ± 1.2
14731 kPa	1020.2 ± 1.2
14769 kPa	1020.1 ± 1.2
14808 kPa	1020.2 ± 1.2
14853 kPa	1020.2 ± 1.2
14892 kPa	1020.2 ± 1.2
14933 kPa	1020.3 ± 1.2
14974 kPa	1020.3 ± 1.2
15014 kPa	1020.2 ± 1.2
15058 kPa	1020.3 ± 1.2
15098 kPa	1020.3 ± 1.2
15146 kPa	1020.4 ± 1.2
15187 kPa	1020.4 ± 1.2
15226 kPa	1020.4 ± 1.2
15275 kPa	1020.5 ± 1.2
15316 kPa	1020.3 ± 1.2
15358 kPa	1020.6 ± 1.2
15400 kPa	1020.5 ± 1.2
15450 kPa	1020.5 ± 1.2
15495 kPa	1020.6 ± 1.2
15540 kPa	1020.6 ± 1.2
15586 kPa	1020.7 ± 1.2
15638 kPa	1020.7 ± 1.2
15671 kPa	1020.6 ± 1.2
15699 kPa	1020.6 ± 1.2
15733 kPa	1020.9 ± 1.2
15763 kPa	1020.8 ± 1.2
15791 kPa	1020.7 ± 1.2
15826 kPa	1020.8 ± 1.2
15856 kPa	1020.8 ± 1.2
15887 kPa	1020.7 ± 1.2
15921 kPa	1020.8 ± 1.2
15952 kPa	1020.9 ± 1.2
15981 kPa	1021 ± 1.2
16011 kPa	1020.9 ± 1.2
16047 kPa	1020.9 ± 1.2
16078 kPa	1021.1 ± 1.2
16109 kPa	1021 ± 1.2
16146 kPa	1020.9 ± 1.2
16177 kPa	1021 ± 1.2
16215 kPa	1021 ± 1.2
16248 kPa	1021.1 ± 1.2
16278 kPa	1021 ± 1.2
16303 kPa	1021.1 ± 1.2
16331 kPa	1021.1 ± 1.2
16354 kPa	1021.1 ± 1.2
16378 kPa	1021 ± 1.2
16406 kPa	1021.2 ± 1.2
16430 kPa	1021 ± 1.2
16454 kPa	1021.3 ± 1.2
16479 kPa	1021.2 ± 1.2
16508 kPa	1021.2 ± 1.2
16532 kPa	1021.2 ± 1.2
16556 kPa	1021.2 ± 1.2
16585 kPa	1021.3 ± 1.2
16610 kPa	1021.3 ± 1.2
16633 kPa	1021.2 ± 1.2
16663 kPa	1021.4 ± 1.2
16688 kPa	1021.3 ± 1.2
16712 kPa	1021.3 ± 1.2
16737 kPa	1021.4 ± 1.2
16765 kPa	1021.3 ± 1.2
16791 kPa	1021.4 ± 1.2
16815 kPa	1021.3 ± 1.2
16845 kPa	1021.5 ± 1.2
16869 kPa	1021.5 ± 1.2
16898 kPa	1021.4 ± 1.2
16924 kPa	1021.4 ± 1.2
16949 kPa	1021.4 ± 1.2
16980 kPa	1021.5 ± 1.2
17005 kPa	1021.5 ± 1.2
17032 kPa	1021.6 ± 1.2
17057 kPa	1021.4 ± 1.2
17088 kPa	1021.6 ± 1.2
17112 kPa	1021.6 ± 1.2
17144 kPa	1021.6 ± 1.2
17170 kPa	1021.5 ± 1.2
17196 kPa	1021.7 ± 1.2
17222 kPa	1021.6 ± 1.2
17253 kPa	1021.6 ± 1.2
17279 kPa	1021.5 ± 1.2
17310 kPa	1021.7 ± 1.2
17337 kPa	1021.7 ± 1.2
17364 kPa	1021.7 ± 1.2
17396 kPa	1021.8 ± 1.2
17422 kPa	1021.8 ± 1.2
17449 kPa	1021.8 ± 1.2
17476 kPa	1021.8 ± 1.2
17509 kPa	1021.7 ± 1.2
17535 kPa	1021.7 ± 1.2
17563 kPa	1021.8 ± 1.2
17596 kPa	1021.8 ± 1.2
17623 kPa	1021.8 ± 1.2
17656 kPa	1022 ± 1.2
17684 kPa	1022 ± 1.2
17713 kPa	1021.9 ± 1.2
17742 kPa	1021.9 ± 1.2
17771 kPa	1021.9 ± 1.2
17800 kPa	1021.9 ± 1.2
17834 kPa	1021.9 ± 1.2
17862 kPa	1022 ± 1.2
17892 kPa	1022 ± 1.2
17920 kPa	1022 ± 1.2
17954 kPa	1022.1 ± 1.2
17983 kPa	1022.1 ± 1.2
18012 kPa	1022.1 ± 1.2
18047 kPa	1022.2 ± 1.2
18076 kPa	1022.1 ± 1.2
18105 kPa	1022.1 ± 1.2
18142 kPa	1022.1 ± 1.2
18171 kPa	1022.2 ± 1.2
18200 kPa	1022.2 ± 1.2
18230 kPa	1022.1 ± 1.2
18265 kPa	1022.3 ± 1.2
18295 kPa	1022.3 ± 1.2
18325 kPa	1022.2 ± 1.2
18360 kPa	1022.2 ± 1.2
18390 kPa	1022.2 ± 1.2
18421 kPa	1022.4 ± 1.2
18457 kPa	1022.4 ± 1.2
18488 kPa	1022.2 ± 1.2
18520 kPa	1022.4 ± 1.2
18551 kPa	1022.4 ± 1.2
18587 kPa	1022.4 ± 1.2
18618 kPa	1022.4 ± 1.2
18650 kPa	1022.6 ± 1.2
18687 kPa	1022.5 ± 1.2
18717 kPa	1022.5 ± 1.2
18749 kPa	1022.7 ± 1.2
18787 kPa	1022.6 ± 1.2
18819 kPa	1022.6 ± 1.2
18850 kPa	1022.5 ± 1.2
18887 kPa	1022.5 ± 1.2
18919 kPa	1022.7 ± 1.2
18951 kPa	1022.6 ± 1.2
